ChEMBL document CHEMBL1201862, “PubChem BioAssay data set” (2004)
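Five compound concentrations were applied to cells in 96-well plates for 48 hours; endpoints were derived by simple linear interpolation of the resulting dose-response curve. The concentration for 50% growth inhibition is given as GI50.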 Active and inactive are the calls of the source. Rule as the data show it: active = GI50 up to about 1.1 µM and inactive = higher.

Columns and labels:
Assay in all cases: growth of human tumour cells (NCI), 48 h
[1] = system: SF-295
[2] = system: NCI-H226
[3] = system: DMS-273
[4] = system: HT-29
[5] = system: A498
[6] = system: COLO 205
[7] = system: IGROV-1
[8] = system: SF-268
[9] = system: SW-620
[10] = system: SNB-19
[11] = system: SK-MEL-2
[12] = system: M14
[13] = system: HCT-15
[14] = system: ACHN
[15] = system: Malme-3M
[16] = system: NCI-H522
[17] = system: UO-31
[18] = system: NCI-H460
[19] = system: RXF 393
[20] = system: RXF 631
[21] = system: OVCAR-5
[22] = system: SK-MEL-28
[23] = system: EKVX
[24] = system: SK-OV-3
[25] = system: OVCAR-4
[26] = system: LXFL 529
[27] = system: HOP-62
[28] = system: SNB-75
[29] = system: NCI-H23
[30] = system: SK-MEL-5
[31] = system: MOLT-4
[32] = system: A549
[33] = system: DLD-1
[34] = system: HCT-116
[35] = system: CCRF-CEM
[36] = system: HOP-92
[37] = system: LOX IMVI
[38] = system: SR
[39] = system: OVCAR-8
[40] = system: SN12C
[41] = system: HOP-18
[42] = system: U-251
[43] = system: UACC-257
[44] = system: XF498
[45] = system: HCC 2998
[46] = system: CAKI-1
[47] = system: K562
[48] = system: M19-MEL
[49] = system: SF-539
[50] = system: KM12
[51] = system: TK-10
[52] = system: 786-0
[53] = system: HL-60
[54] = system: DMS-114
[55] = system: KM-20L2
[56] = system: OVCAR-3
[57] = system: UACC-62

With `COC(=O)C(=O)C1CCCCC(C2=NC3NN=C(N)N3C2=O)C1=O` (configuration not stated) as the compound, how does the GI50 [1] read?
Its GI50 is > 100 µM (inactive).

What about the GI50 [2] of the same compound?
The GI50 was > 100 µM (inactive).

What about the GI50 [3] of the same compound?
Its GI50 is > 100 µM (inactive).

And the GI50 [4]?
Its GI50 is > 100 µM (inactive).

What about the GI50 [5] of the same compound?
Its GI50 is > 100 µM (inactive).

What about the GI50 [6] of the same compound?
The GI50 was > 100 µM (inactive).

And the GI50 [7]?
Its GI50 is > 100 µM (inactive).

And the GI50 [8]?
The GI50 was > 100 µM (inactive).

And the GI50 [9]?
Its GI50 is > 100 µM (inactive).

What about the GI50 [10] of the same compound?
The GI50 was > 100 µM (inactive).

And the GI50 [11]?
Its GI50 is > 100 µM (inactive).

And the GI50 [12]?
Its GI50 is > 100 µM (inactive).

What about the GI50 [13] of the same compound?
The GI50 was greater than 100 µM.

What about the GI50 [14] of the same compound?
The GI50 was > 100 µM (inactive).

And the GI50 [15]?
Its GI50 is > 100 µM (inactive).

What about the GI50 [16] of the same compound?
Its GI50 is > 100 µM (inactive).

And the GI50 [17]?
The GI50 was > 100 µM (inactive).

And the GI50 [18]?
The GI50 was > 100 µM (inactive).

And the GI50 [19]?
The GI50 was 63 µM (inactive).

And the GI50 [20]?
Its GI50 is > 100 µM (inactive).

What about the GI50 [21] of the same compound?
The GI50 was > 100 µM (inactive).

And the GI50 [22]?
Its GI50 is > 100 µM (inactive).

And the GI50 [23]?
The GI50 was > 100 µM (inactive).

And the GI50 [24]?
Its GI50 is > 100 µM (inactive).

What about the GI50 [25] of the same compound?
Its GI50 is > 100 µM (inactive).

And the GI50 [26]?
Its GI50 is > 100 µM (inactive).

And the GI50 [27]?
The GI50 was > 100 µM (inactive).

And the GI50 [28]?
Its GI50 is > 100 µM (inactive).

And the GI50 [29]?
Its GI50 is > 100 µM (inactive).

What about the GI50 [30] of the same compound?
Its GI50 is > 100 µM (inactive).

What about the GI50 [31] of the same compound?
The GI50 was > 100 µM (inactive).

And the GI50 [32]?
Its GI50 is > 100 µM (inactive).

What about the GI50 [33] of the same compound?
The GI50 was > 100 µM (inactive).

And the GI50 [34]?
Its GI50 is > 100 µM (inactive).

And the GI50 [35]?
The GI50 was > 100 µM (inactive).

What about the GI50 [36] of the same compound?
Its GI50 is > 100 µM (inactive).

And the GI50 [37]?
Its GI50 is > 100 µM (inactive).

And the GI50 [38]?
The GI50 was > 100 µM (inactive).

And the GI50 [39]?
Its GI50 is > 100 µM (inactive).

And the GI50 [40]?
Its GI50 is > 100 µM (inactive).

And the GI50 [41]?
The GI50 was > 100 µM (inactive).

What about the GI50 [42] of the same compound?
The GI50 was > 100 µM (inactive).

And the GI50 [43]?
The GI50 was > 100 µM (inactive).

What about the GI50 [44] of the same compound?
Its GI50 is > 100 µM (inactive).

And the GI50 [45]?
Its GI50 is > 100 µM (inactive).

What about the GI50 [46] of the same compound?
Its GI50 is > 100 µM (inactive).

And the GI50 [47]?
Its GI50 is > 100 µM (inactive).

What about the GI50 [48] of the same compound?
The GI50 was > 100 µM (inactive).

What about the GI50 [49] of the same compound?
Its GI50 is > 100 µM (inactive).

What about the GI50 [50] of the same compound?
Its GI50 is > 100 µM (inactive).

What about the GI50 [51] of the same compound?
Its GI50 is > 100 µM (inactive).

What about the GI50 [52] of the same compound?
Its GI50 is > 100 µM (inactive).

And the GI50 [53]?
Its GI50 is > 100 µM (inactive).

And the GI50 [54]?
The GI50 was > 100 µM (inactive).

And the GI50 [55]?
Its GI50 is > 100 µM (inactive).

What about the GI50 [56] of the same compound?
The GI50 was > 100 µM (inactive).

What about the GI50 [57] of the same compound?
Its GI50 is > 100 µM (inactive).
